Data published in patent US20050255509A1, “In vivo measurement of the relative fluxes through ribonucleotide reductase vs. deoxyribonucleoside pathways using isotopes” (KineMed, Inc., priority 2004, published 2005).

Tests used:
[1] = test system: EMT7 mouse mammary carcinoma cells; assay: In vivo tumor cell proliferation by 2H2O incorporation over 5 days of chemotherapy; settings: balb/C mice with EMT7 tumors, 125 mg/kg Gem every other day or 500 mg/kg HU daily
Description: (§1) Female balb/C mice were implanted subcutaneously with approximately 10^6 EMT7 mouse mammary carcinoma cells in matrigel and allowed to reach ca.1500 mm^3. Mice were labeled with 2H2O with an i.p. bolus and treatment with either 125 mg/kg gemcitabine (Gem) or 500 mg/kg HU began. Gem was administered every other day, HU daily. At then end of 5 days tumors were removed, measured, homogenized and DNA was isolated as described, supra. Bone marrow was isolated using standard techniques. Bone marrow DNA was isolated as described, supra. GC/MS analysis was described as carried out, and calculations of RR activity and cell proliferation were carried out for both tumor and bone marrow tissues. Tumor volume was also measured by use of a caliper as is standard in the art.

[2] = target: T1, ribonucleotide reductase (RR) (Homo sapiens, UniProt P23921+P31350); assay: RR activity measured by 2H2O in SW1573 cells; format: cell-based; design: endogenous in cells; host or cells: SW1573 non-small cell lung carcinoma cells; settings: 24 hours; for RR activity, % of control: level reached with increasing doses
T1 sequence (P23921 1-792): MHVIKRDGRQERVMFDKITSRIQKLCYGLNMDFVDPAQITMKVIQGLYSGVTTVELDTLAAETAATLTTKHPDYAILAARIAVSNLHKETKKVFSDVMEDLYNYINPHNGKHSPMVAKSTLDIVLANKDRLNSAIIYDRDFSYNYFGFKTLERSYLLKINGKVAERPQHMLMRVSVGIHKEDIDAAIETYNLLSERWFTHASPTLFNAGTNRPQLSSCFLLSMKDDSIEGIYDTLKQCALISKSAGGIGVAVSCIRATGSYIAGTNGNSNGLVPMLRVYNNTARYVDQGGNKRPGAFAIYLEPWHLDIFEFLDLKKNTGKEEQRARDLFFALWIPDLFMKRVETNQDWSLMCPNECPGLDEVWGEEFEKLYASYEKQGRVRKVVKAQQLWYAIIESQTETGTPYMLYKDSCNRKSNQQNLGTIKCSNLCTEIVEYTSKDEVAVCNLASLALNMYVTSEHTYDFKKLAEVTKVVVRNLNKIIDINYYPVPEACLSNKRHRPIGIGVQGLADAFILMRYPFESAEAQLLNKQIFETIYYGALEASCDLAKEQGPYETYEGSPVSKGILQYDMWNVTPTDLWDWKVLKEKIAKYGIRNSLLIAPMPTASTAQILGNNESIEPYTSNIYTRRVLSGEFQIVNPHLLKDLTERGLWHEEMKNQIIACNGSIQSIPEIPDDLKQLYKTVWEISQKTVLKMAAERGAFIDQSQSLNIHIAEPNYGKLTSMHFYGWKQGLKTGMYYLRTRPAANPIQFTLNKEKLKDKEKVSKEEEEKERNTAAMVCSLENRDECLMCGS
T1 sequence (P31350 1-389): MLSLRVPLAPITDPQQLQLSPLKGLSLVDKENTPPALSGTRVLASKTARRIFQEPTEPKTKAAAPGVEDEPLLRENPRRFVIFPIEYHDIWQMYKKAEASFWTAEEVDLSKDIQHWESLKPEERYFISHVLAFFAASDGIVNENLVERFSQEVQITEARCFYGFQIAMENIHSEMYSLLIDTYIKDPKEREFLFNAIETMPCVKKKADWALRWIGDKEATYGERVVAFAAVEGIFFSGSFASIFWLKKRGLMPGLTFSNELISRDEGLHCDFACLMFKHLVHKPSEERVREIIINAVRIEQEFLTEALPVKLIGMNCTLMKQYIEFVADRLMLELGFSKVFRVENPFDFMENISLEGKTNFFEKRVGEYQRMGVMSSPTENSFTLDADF
Description: Ribonucleotide reductase catalyzes the conversion of ribonucleotides to deoxyribonucleotides (FIG. 1A). A unique feature of RR is the response of nucleoside metabolism to its inhibition. When RR is inhibited, the activity of thymidine kinase is increased. […] Traditionally, this effect is assayed in vitro by measuring the increase in the concentration of free TTP pool relative to the other deoxynucleotides. […] The salvage of deoxyadenosine is very low in normal cells allowing the measurement of DNA synthesis from the incorporation of de novo deoxyadenosine (see supra); furthermore since dAk activity is not affected by RR inhibition it can be used as the denominator for calculating fractional de novo thymidine synthesis. The relative inhibition of RR can be inferred from the reduction in de novo thymidine incorporation relative to dA into DNA. In a preferred embodiment of the invention, once the isotopic enrichment of dA and dT have been determined (as described, supra) for both a test and control subject or sample, the ratio of dT enrichment to dA enrichment is compared.
(§2) Non-small cell lung carcinoma cells (SW1573) were grown under standard conditions to approximately 50% confluence. Media was removed and replaced with media containing 4% ^2H2O, 1 µM dN's and hydroxyurea or gemcitabine at various concentrations. Cells were grown for and additional 24 hours after which they were harvested and frozen. Cell proliferation and RR inhibition was performed as described, supra.

[3] = test system: EMT7 mouse mammary carcinoma cells; assay: Tumor volume by caliper over 5 days of chemotherapy; format: in vivo; settings: balb/C mice with EMT7 tumors, 125 mg/kg Gem every other day or 500 mg/kg HU daily
Description: as §1

[4] = target: T2, ribonucleotide reductase (RR) (Mus musculus, UniProt P07742+P11157); assay: RR inhibition in tumor and bone marrow of EMT7 tumor-bearing mice over 5 days of chemotherapy; format: in vivo; settings: balb/C mice with EMT7 tumors, 125 mg/kg Gem every other day or 500 mg/kg HU daily, relative to untreated (control) mice
T2 construct: from tissue; host or cells: EMT7 mouse mammary carcinoma tumour and bone marrow of female balb/C mice
T2 sequence (P07742 1-792): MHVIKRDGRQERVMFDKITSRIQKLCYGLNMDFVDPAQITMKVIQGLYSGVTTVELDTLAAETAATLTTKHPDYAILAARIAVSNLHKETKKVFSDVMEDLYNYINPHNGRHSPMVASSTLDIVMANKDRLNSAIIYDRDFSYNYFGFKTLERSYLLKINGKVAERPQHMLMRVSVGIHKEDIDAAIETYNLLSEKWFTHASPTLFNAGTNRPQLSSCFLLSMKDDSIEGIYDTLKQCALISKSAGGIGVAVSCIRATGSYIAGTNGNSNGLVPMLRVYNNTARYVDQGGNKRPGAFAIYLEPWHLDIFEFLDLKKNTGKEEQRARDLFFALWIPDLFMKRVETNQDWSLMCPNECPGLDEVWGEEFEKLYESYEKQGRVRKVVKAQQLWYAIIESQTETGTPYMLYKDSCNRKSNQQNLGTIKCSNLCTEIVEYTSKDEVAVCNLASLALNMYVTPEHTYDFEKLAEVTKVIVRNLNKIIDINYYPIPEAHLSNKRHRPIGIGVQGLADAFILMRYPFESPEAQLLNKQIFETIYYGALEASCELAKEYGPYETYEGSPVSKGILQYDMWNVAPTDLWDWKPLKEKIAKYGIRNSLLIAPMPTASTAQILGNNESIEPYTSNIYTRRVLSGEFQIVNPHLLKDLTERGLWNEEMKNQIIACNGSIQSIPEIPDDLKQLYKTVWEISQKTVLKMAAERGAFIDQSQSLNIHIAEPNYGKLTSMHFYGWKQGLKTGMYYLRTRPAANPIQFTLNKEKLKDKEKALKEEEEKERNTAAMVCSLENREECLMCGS
T2 sequence (P11157 1-390): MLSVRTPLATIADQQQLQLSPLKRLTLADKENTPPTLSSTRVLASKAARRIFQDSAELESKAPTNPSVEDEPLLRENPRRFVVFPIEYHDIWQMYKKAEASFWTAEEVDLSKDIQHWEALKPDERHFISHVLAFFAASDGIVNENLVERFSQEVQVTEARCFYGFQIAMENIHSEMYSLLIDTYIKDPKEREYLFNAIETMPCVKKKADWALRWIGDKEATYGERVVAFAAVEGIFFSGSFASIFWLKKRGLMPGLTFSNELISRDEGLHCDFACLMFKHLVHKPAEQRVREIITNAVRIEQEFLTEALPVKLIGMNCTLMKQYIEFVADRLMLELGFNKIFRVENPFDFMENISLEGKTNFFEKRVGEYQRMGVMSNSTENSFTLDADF
Description: Female balb/C mice were implanted subcutaneously with approximately 10^6 EMT7 mouse mammary carcinoma cells in matrigel and allowed to reach ca.1500 mm^3.
as §1, with “Mice” for “Female balb/C mice were implanted subcutaneously with approximately 10^6 EMT7 mouse mammary carcinoma cells in matrigel and allowed to reach ca.1500 mm^3. Mice”

[5] = test system: SW1573 cells; assay: Cell proliferation measured by 2H2O in SW1573 cells; format: cell-based; settings: 24 hours
Description: as §2

[6] = target: T1, ribonucleotide reductase (RR); assay: RR activity measured by 2H2O in hydroxyurea-treated MCF7 cells; format: cell-based; design: endogenous in cells; settings: 24 hours
Description: Ribonucleotide reductase catalyzes the conversion of ribonucleotides to deoxyribonucleotides (FIG. 1A). A unique feature of RR is the response of nucleoside metabolism to its inhibition. When RR is inhibited, the activity of thymidine kinase is increased. […] Traditionally, this effect is assayed in vitro by measuring the increase in the concentration of free TTP pool relative to the other deoxynucleotides. […] In a preferred embodiment of the invention, once the isotopic enrichment of dA and dT have been determined (as described, supra) for both a test and control subject or sample, the ratio of dT enrichment to dA enrichment is compared.
Mammary carcinoma cells (MCF7) were grown under standard conditions to approximately 50% confluence. […] Cells continued to grow for 24 hours after which they were harvested, counted by coulter counter, and frozen.
Genomic DNA was isolated from frozen cells using a Qiagen Tissue Prep Kit according to the manufacturer's instructions. DNA digestion was performed after measuring the ratio of 260/280 to quantify the amount of isolated DNA. […]
HPLC Purification: dA and T were then isolated at room temperature by using a Waters HPLC system coupled with a UV detector. […] Normal nucleosides (dC, dG, dT, dA) were detected by UV absorption at 254 nm. […]

[7] = test system: MCF7 cells; assay: Cell proliferation in hydroxyurea-treated MCF7 cells (2H2O labeling and coulter counter); format: cell-based; settings: 24 hours, hydroxyurea at various concentrations

Row | Structure (SMILES) | tumor cell proliferation [1] | inhibition at 0.0016 µM ([2]; 1.6 nM) [%] | RR activity ([2]; 48 nM) | RR activity, % of control [2] | tumor volume [3] | bone marrow cell RR activity [4] | tumor cell RR activity [4] | concentration at which inhibition of cell proliferation was evident [5] [µM] | RR activity ([6]; doses 50 μM HU and above) | activity of RR ([6]; hydroxyurea at various concentrations) | concentration at which apparent maximal RR inhibition occurred [2] | inhibition at 6 µM [2] [%] | rate of cell proliferation [7]
1 | Nc1ccn([C@@H]2O[C@H](CO)[C@@H](O)C2(F)F)c(=O)n1 [gemcitabine] | effect of HU and Gem on cell proliferation is observed | 70 | nearly abolishes | ~0 % of control | no change | inhibited | inhibited |  |  |  |  |  | 
2 | NC(=O)NO [hydroxyurea] | effect of HU and Gem on cell proliferation is observed |  |  | −20 % of control | no change | inhibited | inhibited | 20 | dramatically inhibited | reduces | 6 µM | 80 | reduces the rate of cell proliferation
